Molecules are shown by their SMILES. pIC50: −log10 of the molar value. Active and inactive are the calls of the source. No cut-off for these calls is given here.

Consider five compounds from ChEMBL document CHEMBL3286250, “Oxirapentyns F-K from the marine-sediment-derived fungus Isaria felina KMM 4639” (J Nat Prod, 2014).

One series relates to Staphylococcus aureus. Briefly: Antimicrobial activity against Staphylococcus aureus ATCC 21027 by agar diffusion method. The series is classed as functional, organism-based.
Another series has as its system Pseudomonas aeruginosa. The series is described as follows: Antimicrobial activity against Pseudomonas aeruginosa KMM 433 by agar diffusion method. The series is classed as functional, organism-based. (In general: A growth-free zone around the sample is the usual read-out of agar diffusion tests.)
The subject of a further series is Escherichia coli. Briefly: Antimicrobial activity against Escherichia coli ATCC 15034 by agar diffusion method. The series is classed as functional, organism-based.
Another series has as its system Bacillus subtilis. The series is described as follows: Antimicrobial activity against Bacillus subtilis KMM 430 by agar diffusion method. The series is classed as functional, organism-based.
The test system of another series is Candida albicans. The series is described as follows: Antimicrobial activity against Candida albicans KMM 455 by agar diffusion method. The series is classed as functional, organism-based.
In the next series the test system is THP-1. Briefly: Cytotoxicity against human THP1 cells after 46 hrs by MTS assay. The series is classed as functional, cell-based. To be noted: THP-1, 46 h. A general note: Formazan colour is commonly taken as a measure of viable cells.
Series [1] can be described thus: Cytotoxicity against CD1 mouse erythrocytes up to 100 uM after 46 hrs by MTS assay. The series is classed as cell-based. As to conditions: erythrocyte.
For another series, the system named is HL-60. Briefly: Cytotoxicity against human HL60 cells after 46 hrs by MTS assay. The series is classed as functional, cell-based. To be noted: HL-60, 46 h.
A short description of series [2]: Cytotoxicity against CD1 mouse splenocytes up to 100 uM after 46 hrs by MTS assay. The series is classed as cell-based. As to conditions: splenocyte.

Take `C=C(C)C#C[C@]12O[C@H]1[C@@H]1OC(C)(C)[C@H](OC(C)=O)C[C@@]1(O)[C@@H](O)[C@@H]2O`: the outcome in the series on Staphylococcus aureus, with Pseudomonas aeruginosa, in the series on Escherichia coli, in the series with Bacillus subtilis and in the series with Candida albicans was inactive.
Consider `C=C(C)C#C[C@]1(O)[C@@H](O)[C@@H]2OC(C)(C)[C@H](OC(C)=O)C[C@@]23O[C@H]3[C@@H]1O`, for which the outcome in the series with Staphylococcus aureus, in the series with Pseudomonas aeruginosa, with Escherichia coli, in the series on Bacillus subtilis and with Candida albicans was inactive.
What is called pIC50 is the IC50 on a negative log10 scale, so that one unit is a factor of ten. Higher therefore signals a small IC50. Turning to `COC(=O)/C=C/C(O)=C1\COCC(OC(C)=O)=C1C(=O)OC`, the result in the series on Staphylococcus aureus, in the series on Pseudomonas aeruginosa, with Escherichia coli, in the series with Bacillus subtilis and with Candida albicans was inactive. Besides, the pIC50 with THP-1 is 4.43; with HL-60 it was 5.37. Besides, the Activity entry in [1] and in [2] was “Non-toxic” in each case.
As to `CC(=O)O[C@@H]1C[C@]23O[C@H]2C2=C(C(=O)CC(C)(C)O2)[C@@H](O)[C@@H]3OC1(C)C`, the outcome with Staphylococcus aureus, in the series on Pseudomonas aeruginosa, with Escherichia coli, in the series with Bacillus subtilis and in the series with Candida albicans was inactive.
For the compound `C=C(C)C#C[C@@]1(O)[C@@H](O)[C@H](O)[C@]2(OC(C)=O)C[C@@H](O)C(C)(C)O[C@H]2[C@@H]1O`, the result in the series on Staphylococcus aureus, in the series on Pseudomonas aeruginosa, in the series on Escherichia coli, with Bacillus subtilis and with Candida albicans was inactive.
